Assay results as given in patent US6939541B2, “Cloning, overexpression and therapeutic use of bioactive histidine ammonia lyase” (priority 2000, dated 2005).
pIC50, pKi: −log10 of the molar value.

Columns and labels:
[1] = biological target: Corynebacteriaceae histidine ammonia lyase (HAL) (Glutamicibacter halophytocola, UniProt A0A5B8IKQ6, DEL117-117/DEL409-409/N172D/R434P/T116S); assay: biochemical; format: biochemical, bacterium of the family Corynebacteriaceae; settings: for pIC50: inhibition not complete, read-out: concentration required to reduce the activity by half
[2] = biological target: T1, Streptomyces griseus histidine ammonia lyase (Streptomyces griseus, UniProt P24221); assay: Inhibition of Streptomyces griseus histidine ammonia lyase; format: biochemical; settings: equal molar concentration to histidine
Source text: HAL has a significant advantage over other histidine ammonia lyases in that it is relatively resistant to inhibition by L-histidinol. L-histidinol is a histidine analog. Because L-histidinol acts as a competitive inhibitor it must be present in high concentrations to have an effect on histidine dependent reactions. Using HAL to reduce the overall histidine pool would therefore greatly increase the effectiveness of L-histidinol. […] Because the Corynebacteriaceae histidine ammonia lyase (HAL) is not inhibited by L-histidinol at therapeutic L-histidinol levels it has a great advantage over other histidine ammonia lyases. […] However, with HAL 20% of activity still is retained when L-histidinol is present at 10 times the concentration of L-histidine.

[3] = test system: Herpes Simplex Virus (HSV); assay: HSV plaque assay in VERO cells; format: cell-based
Experimental: HAL was tested for its anti-viral activity against a variety of infectious viruses in vitro. Effectiveness against Herpes Simplex Virus (HSV) was assayed using the following method. Confluent VERO cells from a T-175 flask are tyrpsinized and split into as many T-25 flasks as the experiment requires. The cells are grown in RPMI-1640 with 10% newborn calf serum-heat inactivated, and L-glutamine. After cells have grown to confluence remove the media and add 0.5 ml of diluted virus (make a series of 1:5 dilution). Dilution of virus is prepared in RPMI-1640 with 2% NCS. The cells are then incubated for 1 hour at 37° C. and then 5 ml of RPMI-1640 with 2% NCS with or without the test compounds is added and incubation is allowed to continue for 1 day. After 24 hours the flasks are sealed with parafilm and frozen at −70° C. The cells are then allowed to thaw at RT to lyse dead intact cells, releasing virus. The viral suspension is then centrifuged to remove cell debris. The viral dilution that caused complete lysis will be used in the plaque assay. The plaque assay is set up by trypsinizing cells from a T-75 and resuspending the cells in RPMI-1640 with 10% NCS and poured into 6-well plate at 2 ml/well. The cells are incubated overnight at 37° C. The media is then removed by suction and 0.2 ml of the viral dilution is added and allowed to incubate for one hour. During this hour the agar is prepared and stored at 41° C. to prevent hardening. The agar concentrations are as follows: ½ vol. 2×BME (Gibco), 2% Pen/Strep, 2% NCS, and 1% agar. After the hour incubation 2 ml of the BME/agar is carefully added to the wells, so as not to disturb the cell monolayer. The plate is left at RT for twenty to thirty minutes to allow the agar to harden, and then the cells are incubated for 48 hours at 37° C. The cells are then stained used BME/agar containing neutral red. The BME/agar is prepared as before with the addition of neutral red stain (Gibco) to a final concentration of 5%. […] Plaques are then counted and the cells fixed for a permanent record.

[4] = biological target: histidine ammonia lyase isolated from Achromobacter liquidum; settings: Shibatani et al. 1975; cited from earlier work
[5] = test system: Respiratory Syncytial Virus (RSV); assay: RSV plaque assay in Hep2 cells; format: cell-based; settings: L-histidinol 3 mM
Experimental: Another successful study has been with Respiratory Syncytial Virus (RSV). RSV is another highly infectious disease causing agent. It causes lower respiratory-tract infections such as bronchitis and pneumonia in infancy and early childhood, with nearly 50% of infants suffering from an RSV infection during their first winter. Experiments were performed in tissue culture using the RSV Plaque Assay. The RSV plaque assay is performed similarly to the HSV assay. When performing the RSV assay Hep2 cells are used to propagate the RSV and the cells are grown in EMEM media with 2% FBS, L-glutamine and Antibiotic-Antimycotic. The virus stock is diluted in the medium and added to each well with or without the desired testing compound. The plates are incubated for 2 hours at 37° C. and the virus is removed. 0.5% agarose is added to the media and incubated for 5 days at 37° C. The plates are then fixed with 10% formalin and stained with crystal violet.

[6] = biological target: T1, Streptomyces griseus histidine ammonia lyase; settings: Wu et al.; cited from earlier work

Corynebacteriaceae histidine ammonia lyase (HAL), sequence (A0A5B8IKQ6 entry or part of it T116S/DEL117-117/N172D/DEL409-409/R434P): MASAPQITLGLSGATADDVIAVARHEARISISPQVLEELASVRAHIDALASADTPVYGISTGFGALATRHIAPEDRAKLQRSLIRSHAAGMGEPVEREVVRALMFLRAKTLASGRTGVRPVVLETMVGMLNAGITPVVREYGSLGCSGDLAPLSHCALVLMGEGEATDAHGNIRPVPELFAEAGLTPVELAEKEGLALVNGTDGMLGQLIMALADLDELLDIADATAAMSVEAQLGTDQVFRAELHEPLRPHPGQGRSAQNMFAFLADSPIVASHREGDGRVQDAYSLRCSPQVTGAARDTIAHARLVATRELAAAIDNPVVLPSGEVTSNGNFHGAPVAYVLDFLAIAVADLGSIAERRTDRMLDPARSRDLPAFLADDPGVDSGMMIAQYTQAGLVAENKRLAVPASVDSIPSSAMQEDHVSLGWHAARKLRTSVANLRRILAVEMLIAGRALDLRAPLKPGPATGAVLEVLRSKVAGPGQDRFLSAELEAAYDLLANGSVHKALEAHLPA
T1 sequence (P24221 whole entry): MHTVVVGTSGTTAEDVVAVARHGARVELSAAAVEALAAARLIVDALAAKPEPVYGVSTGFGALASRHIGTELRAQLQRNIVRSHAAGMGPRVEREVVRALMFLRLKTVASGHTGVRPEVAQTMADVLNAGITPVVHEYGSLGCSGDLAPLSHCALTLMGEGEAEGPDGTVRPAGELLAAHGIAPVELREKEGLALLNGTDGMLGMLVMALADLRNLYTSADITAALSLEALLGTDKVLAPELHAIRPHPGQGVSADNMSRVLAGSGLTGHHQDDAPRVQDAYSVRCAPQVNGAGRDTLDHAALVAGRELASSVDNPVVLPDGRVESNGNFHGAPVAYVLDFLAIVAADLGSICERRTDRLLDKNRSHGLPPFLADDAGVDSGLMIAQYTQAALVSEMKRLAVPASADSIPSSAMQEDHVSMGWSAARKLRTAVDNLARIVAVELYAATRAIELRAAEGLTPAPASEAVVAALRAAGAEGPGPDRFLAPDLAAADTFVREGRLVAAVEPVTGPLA

Compound: O[C@@H](CS)[C@@H](O)CS [DTT]
- pIC50 [1]: 1.82

Compound: O=C(O)CN(CCN(CC(=O)O)CC(=O)O)CC(=O)O [EDTA]
- inhibition of the HAL reaction ([1]; concentrations as low as 1 mM): completely inhibit
- reversibility of the inhibition ([1]; presence of Mn^2+ at 1×10^5 M): reversible

Compound: N[C@H](CO)Cc1c[nH]cn1 [L-histidinol]
- inhibition of the enzyme [2]: completely inhibit
- pKi [1]: 1.48 to 1.61
- inhibition of HAL ([1]; therapeutic L-histidinol levels): not inhibited
- inhibition of HSV ([3]; L-histidinol 0.1 mM): no inhibition
- inhibition of HSV ([3]; L-histidinol 0.5 mM): no inhibition
- inhibition of HSV ([3]; L-histidinol 1 mM): 5 fold
- pKi [4]: 2.34
- inhibition of RSV plaque numbers [5]: no inhibition

Compound: N[C@@H](CCC(=O)N[C@@H](CS)C(=O)NCC(=O)O)C(=O)O [reduced glutathione]
- pIC50 [1]: 1.82

Compound: L-histidinol phosphate
- pKi [6]: 3.57
